Assay results from ChEMBL document CHEMBL4699602, “Stapled and Xenopus Glucagon-Like Peptide 1 (GLP-1)-Based Dual GLP-1/Gastrin Receptor Agonists with Improved Metabolic Benefits in Rodent Models of Obesity and Diabetes” (J Med Chem, 2020).
Activity calls are given as the source filed them. The calls are words filed in the database; no cut-off is given here. *1 amine or outer side, *2 acyl side, *3 side chain or, on linkers, in order; H or OH if unused. Bridges are numbered along the chain shown (N, C = ends). [ ]: non-standard residue; d: D form. X1 = CCCCCCCCCCCCCCCC(=O)NCCCCCCNC(=O)C(CCCCNC(=O)CCN1C(=O)CC([*:1])C1=O)NC(=O)CCN1C(=O)CC([*:2])C1=O; AEEA = NCCOCCOCC(=O)O; Aib = CC(C)(N)C(=O)O

Experiments:
Mus musculus [1] = assay: Improvement in HbA1c level in db/db mouse at 25 nmol/kg, sc BID for 21 days relative to control; format: functional, organism-based; settings: time 21.0 day
[2] = Tmax in ICR mouse at 50 nmol/kg, sc up to 24 hrs by LC-MS/MS analysis; format: ADME, organism-based; settings: in vivo
Mus musculus [3] = assay: Inhibition of liquid-phase gastric emptying in 6 hrs fasted ICR mouse assessed as reduction in blood acetaminophen concentration at 25 nmol/kg, ip dosed 30 mins before acetaminophen dosing by LC-MS/MS analysis; format: functional, organism-based
Mus musculus [4] = assay: Reduction in serum cholesterol in C57BL/6 mouse model of high-fat diet induced obesity at 25 nmol/kg, sc BID for 21 days relative to control; format: functional, organism-based; settings: time 21.0 day
Mus musculus [5] = assay: Improvement in glucose tolerance in C57BL/6 mouse model of high-fat diet induced obesity at 25 nmol/kg, sc BID for 21 days relative to control; format: functional, organism-based; settings: time 21.0 day
[6] = Hepatotoxicity in ICR mouse assessed as effect on aspartate aminotransferase level at 1000 nmol/kg, sc BID for 14 days; format: toxicity, organism-based; settings: in vivo, 336 h, time 14 day
[7] = Toxicity in Sprague-Dawley rat assessed as induction of kaolin intake at 25 nmol/kg, sc BID for 10 days by Kaolin consumption test; format: organism-based; settings: in vivo, 240 h, time 10 day
Mus musculus [8] = assay: Inhibition of pancreatic non-beta cell area (alpha-cell) level in db/db mouse at 25 nmol/kg, sc BID for 21 days relative to control; format: functional, organism-based; settings: time 21.0 day
[9] = Renal toxicity in ICR mouse assessed as effect on serum creatinine level at 1000 nmol/kg, sc BID for 14 days; format: organism-based; settings: in vivo, 336 h, time 14 day
[10] = target: Glucagon-like peptide 1 receptor (Homo sapiens, UniProt P43220); assay: Agonist activity at human GLP-1R expressed in HEK293 cells assessed as stimulation of cAMP accumulation incubated for 20 mins; format: functional, cell-based
Mus musculus [11] = assay: Insulinotropic activity in db/db mouse assessed as improvement in plasma insulin level at 25 nmol/kg, ip dosed 30 mins before test and measured up to 60 mins by OGTT method; format: functional, organism-based; settings: time 90.0 min
Mus musculus [12] = assay: Reduction in Hb1Ac level in db/db mouse at 25 nmol/kg, sc BID for 6 weeks followed by another 6 week saline treatment relative to control; format: functional, organism-based
Rattus norvegicus [13] = assay: Reduction of food intake in Sprague-Dawley rat at 25 nmol/kg, sc BID for 12 days; format: functional, organism-based; settings: time 12.0 day
[14] = Toxicity in Sprague-Dawley rat assessed as induction of kaolin intake at 25 nmol/kg, ip after 24 hrs by Kaolin consumption test; format: organism-based; settings: in vivo
Mus musculus [15] = assay: Improvement in fasted blood glucose level in db/db mouse at 25 nmol/kg, sc BID for 21 days relative to control; format: functional, organism-based; settings: time 21.0 day
Mus musculus [16] = assay: Improvement in pancreatic beta cell area level in db/db mouse at 25 nmol/kg, sc BID for 21 days relative to control; format: functional, organism-based; settings: time 21.0 day
Mus musculus [17] = assay: Improvement in insulin content in db/db mouse at 25 nmol/kg, sc BID for 21 days relative to control; format: functional, organism-based; settings: time 21.0 day
Mus musculus [18] = assay: Improvement in pancreatic islet area and number level in db/db mouse at 25 nmol/kg, sc BID for 21 days relative to control; format: functional, organism-based; settings: time 21.0 day
Rattus norvegicus [19] = assay: Reduction of food intake in Sprague-Dawley rat at 25 nmol/kg, ip after 24 hrs; format: functional, organism-based
Mus musculus [20] = assay: Reduction in fasting blood glucose in C57BL/6 mouse model of high-fat diet induced obesity at 25 nmol/kg, sc BID for 21 days relative to control; format: functional, organism-based; settings: time 21.0 day
Mus musculus [21] = assay: Hypoglycemic activity in db/db mouse assessed as improvement in glucose tolerance at 25 nmol/kg, ip dosed 30 mins before test and measured up to 120 mins by OGTT method; format: functional, organism-based; settings: time 150.0 min
Mus musculus [22] = assay: Reduction in body weight gain in db/db mouse at 25 nmol/kg, sc BID for 21 days relative to control; format: functional, organism-based; settings: time 21.0 day
[23] = target: T1, Cholecystokinin receptor type A (Homo sapiens, UniProt P32238); assay: Agonist activity at human CCK-1R expressed in HEK293 cells assessed as stimulation of ERK phosphorylation incubated for 5 mins; format: cell-based
T1 sequence (P32238 whole entry): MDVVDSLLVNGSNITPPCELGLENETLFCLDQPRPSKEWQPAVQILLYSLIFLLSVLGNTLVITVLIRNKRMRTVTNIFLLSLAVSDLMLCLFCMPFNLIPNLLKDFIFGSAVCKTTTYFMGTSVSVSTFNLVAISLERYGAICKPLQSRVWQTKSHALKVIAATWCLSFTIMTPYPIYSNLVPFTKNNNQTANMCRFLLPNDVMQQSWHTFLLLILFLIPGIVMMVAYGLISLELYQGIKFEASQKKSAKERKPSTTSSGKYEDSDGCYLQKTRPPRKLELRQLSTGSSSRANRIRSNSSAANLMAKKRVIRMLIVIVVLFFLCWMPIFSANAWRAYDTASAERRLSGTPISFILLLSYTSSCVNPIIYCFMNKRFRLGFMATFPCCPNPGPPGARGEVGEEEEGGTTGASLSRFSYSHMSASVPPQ

Mus musculus [24] = assay: Reduction in body weight in C57BL/6 mouse model of high-fat diet induced obesity at 25 nmol/kg, sc BID for 21 days relative to control; format: functional; parameters: scale not given: the % may be the effect or the level left; settings: time 21 day
Mus musculus [25] = assay: Reduction in body fat content in C57BL/6 mouse model of high-fat diet induced obesity at 25 nmol/kg, sc BID for 21 days relative to control; format: functional; parameters: scale not given: the % may be the effect or the level left; settings: time 21 day
INS1 [26] = assay: Protection against glucotoxicity in rat INS1 cells assessed as recovery of cell viability after 24 hrs in presence of glucotoxicity media by MTT assay; format: functional, cell-based
[27] = AUC (0 to infinity) in ICR mouse at 50 nmol/kg, sc up to 24 hrs by LC-MS/MS analysis; format: ADME, organism-based; parameters: route subcutaneous, dose 50 nmol/kg, time <=24; settings: in vivo
Mus musculus [28] = assay: Inhibition of solid-phase gastric emptying in fasted ICR mouse at 25 nmol/kg, ip measured after 4 hrs by LC-MS/MS analysis; format: functional, organism-based
Mus musculus [29] = assay: Improvement in glucose tolerance in db/db mouse at 25 nmol/kg, sc BID for 6 weeks followed by another 6 week saline treatment relative to control; format: functional, organism-based
Mus musculus [30] = assay: Hypoglycemic activity in db/db mouse assessed as decrease in glucose excursion at 25 nmol/kg, ip dosed 30 mins before test and measured up to 120 mins by OGTT method; format: functional, organism-based; settings: time 150.0 min
[31] = Hepatotoxicity in ICR mouse assessed as effect on alanine aminotransferase level at 1000 nmol/kg, sc BID for 14 days; format: toxicity, organism-based; settings: in vivo, 336 h, time 14 day
[32] = Half life in ICR mouse at 50 nmol/kg, sc up to 24 hrs by LC-MS/MS analysis; format: ADME, organism-based; settings: in vivo
[33] = target: T2, Gastrin/cholecystokinin type B receptor (Homo sapiens, UniProt P32239); assay: Agonist activity at human CCK-2R expressed in HEK293 cells assessed as stimulation of ERK phosphorylation incubated for 5 mins; format: cell-based
T2 sequence (P32239 whole entry): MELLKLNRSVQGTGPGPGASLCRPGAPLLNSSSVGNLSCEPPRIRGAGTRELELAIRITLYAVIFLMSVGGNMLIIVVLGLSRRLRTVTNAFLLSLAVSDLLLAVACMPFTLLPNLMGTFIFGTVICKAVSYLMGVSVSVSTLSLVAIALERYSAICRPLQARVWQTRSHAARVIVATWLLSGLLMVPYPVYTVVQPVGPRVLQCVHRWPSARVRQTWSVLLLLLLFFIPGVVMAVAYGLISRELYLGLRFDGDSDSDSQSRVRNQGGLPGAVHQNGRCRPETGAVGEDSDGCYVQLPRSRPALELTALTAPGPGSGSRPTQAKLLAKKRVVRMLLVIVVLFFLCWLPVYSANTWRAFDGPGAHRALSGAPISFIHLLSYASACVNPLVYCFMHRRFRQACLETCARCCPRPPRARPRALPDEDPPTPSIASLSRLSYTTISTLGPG

INS1 [34] = assay: Toxicity in rat INS1 cells assessed as reduction cell viability up to 1000 nM after 24 hrs by MTT assay; format: cell-based; settings: ins1, 24 h
Mus musculus [35] = assay: Improvement in fasted blood glucose level in db/db mouse at 25 nmol/kg, sc BID for 6 weeks followed by another 6 week saline treatment relative to control; format: functional, organism-based
Mus musculus [36] = assay: Hypoglycemic activity in non-fasted db/db mouse assessed as improvement in glucose tolerance at dosed intraperitoneally 30 mins before test and measured up to 120 mins by OGTT method; format: functional, organism-based; settings: time 150.0 min
[37] = Renal toxicity in ICR mouse assessed as effect on blood urea nitrogen level at 1000 nmol/kg, sc BID for 14 days; format: organism-based; settings: in vivo, 336 h, time 14 day
Mus musculus [38] = assay: Reduction in cumulated food intake in db/db mouse at 25 nmol/kg, sc BID for 21 days relative to control; format: functional, organism-based; settings: time 21.0 day
Mus musculus [39] = assay: […] activity in non-fasted db/db mouse assessed as improvement in glucose tolerance at dosed intraperitoneally 30 mins before test and measured up to 120 mins by OGTT method; format: functional, organism-based; settings: time 150.0 min
Mus musculus [40] = assay: Reduction in serum triglyceride in C57BL/6 mouse model of high-fat diet induced obesity at 25 nmol/kg, sc BID for 21 days relative to control; format: functional, organism-based; settings: time 21.0 day

Glucagon-like peptide 1 receptor, sequence (P43220 whole entry): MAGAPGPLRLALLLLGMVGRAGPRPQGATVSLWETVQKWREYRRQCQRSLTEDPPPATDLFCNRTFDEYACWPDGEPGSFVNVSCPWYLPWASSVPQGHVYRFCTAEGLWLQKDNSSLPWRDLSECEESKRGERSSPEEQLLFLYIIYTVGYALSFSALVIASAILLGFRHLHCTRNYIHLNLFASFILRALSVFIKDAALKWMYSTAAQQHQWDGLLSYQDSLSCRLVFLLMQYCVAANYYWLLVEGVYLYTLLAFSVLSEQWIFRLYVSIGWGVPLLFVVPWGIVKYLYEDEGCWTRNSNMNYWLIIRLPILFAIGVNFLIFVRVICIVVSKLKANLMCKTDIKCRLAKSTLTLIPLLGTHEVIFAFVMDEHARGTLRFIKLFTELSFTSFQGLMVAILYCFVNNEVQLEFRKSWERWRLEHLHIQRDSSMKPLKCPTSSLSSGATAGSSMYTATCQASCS

Substance	Activity (Mus musculus [1])	Tmax [2]	inhibition (Mus musculus [3])	Activity (Mus musculus [4])	Activity (Mus musculus [5])	Activity [6]	Activity [7]	inhibition (Mus musculus [8])	Activity [9]	EC50 [10]	Activity (Mus musculus [11])	Activity (Mus musculus [12])	Activity (Rattus norvegicus [13])	Activity [14]	Activity (Mus musculus [15])	Activity (Mus musculus [16])	Activity (Mus musculus [17])	Activity (Mus musculus [18])	Activity (Rattus norvegicus [19])	Activity (Mus musculus [20])	further results
H-H[Aib]EGTYTNDVTEYLEEEAAKCFIEWLICGKPSSGAPPPS[AEEA][AEEA]YGWLDF-NH2 (linker 21-28 via X1)	Active	4 h	Active	Active	Active	Non-Toxic	Non-Toxic	Active	Non-Toxic	0.041 nM	Active	Active	Active	Non-Toxic	Active	Active	Active	Active	Active	Active	Activity (Mus musculus [21]): Active; Activity (Mus musculus [22]): Active; EC50 [23]: > 1000 nM; Activity (Mus musculus [24]): 24%; Activity (Mus musculus [25]): 30.4%; Activity (INS1 [26]): Dose-dependent effect; AUC(0-inf) [27]: 19600 ng·h/mL; inhibition (Mus musculus [28]): Active; Activity (Mus musculus [29]): Active; Activity (Mus musculus [30]): Active; Activity [31]: Non-Toxic; half-life [32]: 4.7 h; EC50 [33]: 8.8 nM; Activity (INS1 [34]): Non-Toxic; Activity (Mus musculus [35]): Active; Activity (Mus musculus [36]): Dose-dependent effect; Activity [37]: Non-Toxic; Activity (Mus musculus [38]): Active; Activity (Mus musculus [39]): Dose-dependent effect; Activity (Mus musculus [40]): Active
H-H[Aib]EGTYTNDVTEYCEEEAAKCFIEWLIKGKPSSGAPPPS[AEEA][AEEA]YGWLDF-NH2 (linker 14-21 via X1)	Active	4 h	Active	Active	Active	Non-Toxic	Non-Toxic	Active	Non-Toxic	0.022 nM	Active	Active	Active	Non-Toxic	Active	Active	Active	Active	Active	Active	Activity (Mus musculus [21]): Active; Activity (Mus musculus [22]): Active; EC50 [23]: > 1000 nM; Activity (Mus musculus [24]): 26.3%; Activity (Mus musculus [25]): 32.2%; Activity (INS1 [26]): Dose-dependent effect; AUC(0-inf) [27]: 15900 ng·h/mL; inhibition (Mus musculus [28]): Active; Activity (Mus musculus [29]): Active; Activity (Mus musculus [30]): Active; Activity [31]: Non-Toxic; half-life [32]: 4.4 h; EC50 [33]: 7.3 nM; Activity (INS1 [34]): Non-Toxic; Activity (Mus musculus [35]): Active; Activity (Mus musculus [36]): Dose-dependent effect; Activity [37]: Non-Toxic; Activity (Mus musculus [38]): Active; Activity (Mus musculus [39]): Dose-dependent effect; Activity (Mus musculus [40]): Active
